# Reference: patent US8680052B1, “Methods of treating, reducing the incidence of, and/or preventing ischemic events” (The Medicines Company, priority 2013, dated 2014)
# Read-outs that look alike come from different tables or passages of the source.
# Tests used:
# [1] = test system: patients undergoing percutaneous coronary intervention (PCI); conditions: human, in vivo, 48 h;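 further: bleeding events compared through 48 h in the safety population, meaning patients given at least one study drug dose and grouped by treatment actually received, two-tailed tests at 0.05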
# Procedure: (§1) The primary efficacy endpoint was the composite of mortality, myocardial infarction, or ischemia-driven revascularization at 48 hours. The primary analysis was performed on a modified intent-to-treat population. Confirmatory analyses were performed on an intent-to-treat population. Secondary endpoints included the individual rates of mortality, myocardial infarction, new Q-wave myocardial infarction, ischemia-driven revascularization, abrupt vessel closure, or stroke at 48 hours. Mortality at 30 days and 1 year was also recorded. The clinical events committee adjudicated myocardial infarction, Q-wave myocardial infarction, ischemia-driven revascularization, stent thromboses, and stroke (ischemic or hemorrhagic). The definition of stent thrombosis was similar to the Academic Research Consortium definition of definite stent thrombosis. After review of the prespecified analyses, two exploratory endpoints less reliant on periprocedural biomarker ascertainment were examined. The exploratory endpoints, which were composed of prespecified and adjudicated endpoints, were the composite of mortality, Q-wave myocardial infarction, or ischemia-driven revascularization and the composite of mortality, Q-wave myocardial infarction, or stent thrombosis. Bleeding and adverse events through 48 hours were compared.
# (§2) All efficacy analyses were performed on the modified intent-to-treat population, defined as all randomized patients who received at least one dose of study drug and underwent the index PCI. All safety-related analyses were performed on the safety population, which included all patients who received at least one dose of assigned study drug. Patients in the safety analyses were assigned to a treatment arm based on treatment actually received, not as randomized. Intent-to-treat analyses are also presented for full disclosure of results. All statistical tests were two-tailed using a level of significance of 0.05. […] Logistic regression was also used to analyze the majority of the remaining secondary endpoints.
# [2] = test system: patients with atherosclerosis undergoing PCI
# Procedure: The protocol called for aspirin (75 to 325 mg) to be administered to all patients. […] The choice of a periprocedural anticoagulant (bivalirudin, unfractionated heparin, low-molecular-weight heparin, or fondaparinux) was also at the discretion of the investigator. Glycoprotein IIb/IIIa inhibitors were allowed only as rescue therapy during PCI to treat new or persistent thrombus formation, slow or no reflow, side-branch compromise, dissection, or distal embolization. The investigator at the site determined the protocol for management of the arterial sheath.
# The inclusion criteria for the trial were men or nonpregnant women, 18 years of age or older with coronary atherosclerosis who required PCI for stable angina, a non-ST-segment elevation acute coronary syndrome, or ST-segment elevation myocardial infarction (STEMI). Patients were required to provide written informed consent.
# Major exclusion criteria were receipt of a P2Y12 inhibitor or abciximab at any time in the 7 days before randomization and receipt of eptifibatide or tirofiban or fibrinolytic therapy in the 12 hours before randomization.
# The primary efficacy end point was the composite rate of death from any cause, myocardial infarction, IDR, or stent thrombosis in the 48 hours after randomization in the modified intention-to-treat population (which comprised patients who actually underwent PCI and received the study drug). […] The key secondary end point was the incidence of stent thrombosis at 48 hours. This end point included definite stent thrombosis, defined according to the criteria of the Academic Research Consortium, or intraprocedural stent thrombosis, which was assessed, with group assignments concealed, at an angiographic core laboratory (Cardiovascular Research Foundation). Intraprocedural stent thrombosis was defined as any new or worsened thrombus related to the stent procedure that was confirmed angiographically. Events of death, myocardial infarction, IDR, and stent thrombosis that occurred during the first 30 days after randomization were adjudicated by the clinical events committee at the Duke Clinical Research Institute. The study adhered to the universal definition of myocardial infarction for myocardial infarction unrelated to PCI but expanded on the definition of PCI-related myocardial infarction.
# The numbers and percentages of patients within each analysis population (modified intention-to-treat, intention-to-treat, and safety) were summarized according to treatment group. The primary efficacy analysis of the rate of the composite end point of death from any cause, myocardial infarction, IDR, or stent thrombosis (with all events adjudicated by the clinical events committee) in the 48 hours after randomization was conducted in the modified intention-to-treat population. The primary safety analysis was conducted in the safety population, which comprised all patients who underwent randomization and received at least one dose of the study drug; patients were classified according to the actual treatment received. All calculations and statistical analyses were performed with the use of SAS software, version 9.2.
# [3] = in vivo; cited from earlier work
# [4] = test system: platelet function; conditions: in vivo; cited from earlier work
# [5] = test system: patients undergoing percutaneous coronary intervention (PCI); assay: Example 1: bleeding and adverse events through 48 hours;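 further: bleeding events compared through 48 h in the safety population, meaning patients given at least one study drug dose and grouped by treatment actually received, two-tailed tests at 0.05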
# Procedure: as §1, §2
# [6] = 48 hours, ITT, Cangrelor vs Clopidogrel
# [7] = 48 hours, ITT, rate in parentheses
# [8] = 48 hours, modified intention-to-treat, Cangrelor vs Clopidogrel
# [9] = 30 days, cangrelor vs clopidogrel
# [10] = 30 days, modified intention-to-treat population
# [11] = 30 days, modified intention-to-treat, Cangrelor vs Clopidogrel
# [12] = 48-hour, safety population, cangrelor vs placebo
compound,measurement,setting,value
"CSCCNc1nc(SCCC(F)(F)F)nc2c1ncn2[C@@H]1O[C@H](COP(=O)(O)OP(=O)(O)C(Cl)(Cl)P(=O)(O)O)[C@@H](O)[C@H]1O [Cangrelor, cangrelor]",ACUITY criteria Major bleeding,[1],147 (5.5) no. (%)
same,ACUITY criteria Minor bleeding,[1],320 (12.0) no. (%)
same,Access site bleeding requiring radiologic or surgical intervention,[1],8 (0.3) no. (%)
same,Any blood transfusion,[1],26 (1.0) no. (%)
same,Any platelet transfusion,[1],4 (0.2) no. (%)
same,Any red blood cell transfusion,[1],25 (0.9) no. (%)
same,Drop in hemoglobin and/or hematocrit,[1],33 (1.2) no. (%)
same,Ecchymosis,[1],95 (3.6) no. (%)
same,Epistaxis,[1],6 (0.2) no. (%)
same,GUSTO criteria Mild bleeding,[1],427 (16.0) no. (%)
same,GUSTO criteria Moderate bleeding,[1],20 (0.8) no. (%)
same,GUSTO criteria Severe/life-threatening bleeding,[1],9 (0.3) no. (%)
same,Hematoma <5 cm at puncture site,[1],150 (5.6) no. (%)
same,Hematoma ≧5 cm at puncture site,[1],115 (4.3) no. (%)
same,Hemodynamic compromise,[1],7 (0.3) no. (%)
same,Intracranial hemorrhage,[1],2 (0.1) no. (%)
same,Intraocular,[1],0 (0.0) no. (%)
same,Odds Ratio (95% CI): Any blood transfusion,[1],"1.624 (0.869, 3.034)"
same,Odds Ratio (95% CI): Any platelet transfusion,[1],"1.992 (0.365, 10.887)"
same,Odds Ratio (95% CI): Any red blood cell transfusion,[1],"1.665 (0.876, 3.166)"
same,Odds Ratio (95% CI): Drop in hemoglobin and/or hematocrit,[1],"0.938 (0.581, 1.514)"
same,Odds Ratio (95% CI): Ecchymosis,[1],"1.684 (1.207, 2.349)"
same,Odds Ratio (95% CI): Epistaxis,[1],"0.497 (0.186, 1.325)"
same,Odds Ratio (95% CI): GUSTO criteria Mild bleeding,[1],"1.442 (1.232, 1.688)"
same,Odds Ratio (95% CI): Reoperation for bleeding,[1],"0.995 (0.062, 15.924)"
same,Odds Ratio (95% CI): Retroperitoneal,[1],"1.992 (0.180, 21.978)"
same,Odds Ratio (95% CI): TIMI criteria Major bleeding,[1],"0.442 (0.136, 1.436)"
same,Odds Ratio (95% CI): TIMI criteria Minor bleeding,[1],"1.372 (0.719, 2.618)"
same,Odds Ratio (95% CI): Thrombocytopenia,[1],"0.663 (0.111, 3.973)"
same,Oozing at puncture site,[1],125 (4.7) no. (%)
same,Reoperation for bleeding,[1],1 (0.0) no. (%)
same,Retroperitoneal,[1],2 (0.1) no. (%)
same,TIMI criteria Major bleeding,[1],4 (0.2) no. (%)
same,TIMI criteria Minor bleeding,[1],22 (0.8) no. (%)
same,"odds ratio, primary end point",[2]; 300-mg loading dose of clopidogrel,0.84
same,"odds ratio, primary end point",[2]; 600-mg loading dose of clopidogrel,0.77
same,number needed to treat to prevent one primary end-point event,[2]; 48 hours,84
same,rate of stent thrombosis (key secondary efficacy end point),[2]; 48 hours,0.8%
same,Death OR,[2]; [6],0.95
same,Death/MI OR,[2]; [6],0.80
same,Death/MI/IDR OR,[2]; [6],0.80
same,Death/MI/IDR/ST OR,[2]; [6],0.79
same,Death/MI/IDR/ST/GUSTO Severe Bleeding (NACE) OR,[2]; [6],0.80
same,Death/MI/ST OR,[2]; [6],0.79
same,Death/Q-wave MI/IDR OR,[2]; [6],0.77
same,Death/ST OR,[2]; [6],0.67
same,IDR OR,[2]; [6],0.76
same,MI OR,[2]; [6],0.80
same,Q-wave MI OR,[2]; [6],0.61
same,Stent thrombosis OR,[2]; [6],0.62
same,Death,"[2]; 48 hours, ITT, n/N",20/5573
same,Death/MI,"[2]; 48 hours, ITT, n/N",222/5573
same,Death/MI/IDR,"[2]; 48 hours, ITT, n/N",233/5573
same,Death/MI/IDR/ST,"[2]; 48 hours, ITT, n/N",260/5573
same,"Death/MI/IDR/ST/GUSTO Severe Bleeding (Net Adverse Clinical Events, NACE)","[2]; 48 hours, ITT, n/N",267/5573
same,Death/MI/ST,"[2]; 48 hours, ITT, n/N",251/5573
same,Death/Q-wave MI/IDR,"[2]; 48 hours, ITT, n/N",52/5573
same,Death/ST,"[2]; 48 hours, ITT, n/N",61/5573
same,IDR,"[2]; 48 hours, ITT, n/N",29/5573
same,MI,"[2]; 48 hours, ITT, n/N",207/5573
same,Q-wave MI,"[2]; 48 hours, ITT, n/N",11/5573
same,Stent thrombosis,"[2]; 48 hours, ITT, n/N",46/5573
same,Death,[2]; [7],(0.4)
same,Death/MI,[2]; [7],(4.0)
same,Death/MI/IDR,[2]; [7],(4.2)
same,Death/MI/IDR/ST,[2]; [7],(4.7)
same,"Death/MI/IDR/ST/GUSTO Severe Bleeding (Net Adverse Clinical Events, NACE)",[2]; [7],(4.8)
same,Death/MI/ST,[2]; [7],(4.5)
same,Death/Q-wave MI/IDR,[2]; [7],(0.9)
same,Death/ST,[2]; [7],(1.1)
same,IDR,[2]; [7],(0.5)
same,MI,[2]; [7],(3.7)
same,Q-wave MI,[2]; [7],(0.2)
same,Stent thrombosis,[2]; [7],(0.8)
same,"odds ratio, stent thrombosis","[2]; 48 hours, cangrelor vs clopidogrel",0.62
same,"odds ratio, primary composite efficacy end point","[2]; 48 hours, crude analysis, cangrelor vs clopidogrel",0.79
same,"odds ratio, primary composite efficacy end point","[2]; 48 hours, logistic regression adjusted for baseline status and clopidogrel loading dose, cangrelor vs clopidogrel",0.78
same,"rate of primary composite efficacy end point (death from any cause, myocardial infarction, IDR, or stent thrombosis)","[2]; 48 hours, modified intention-to-treat",4.7%
same,"Death from any cause, Odds Ratio (95% CI)",[2]; [8],1.00 (0.52-1.92)
same,"Death from cardiovascular causes, Odds Ratio (95% CI)",[2]; [8],1.00 (0.52-1.92)
same,"Death or stent thrombosis, Odds Ratio (95% CI)",[2]; [8],0.67 (0.48-0.94)
same,"Death, Q-wave myocardial infarction, or ischemia-driven revascularization, Odds Ratio (95% CI)",[2]; [8],0.76 (0.53-1.11)
same,Death/MI OR (95% CI),[2]; [8],"0.80 (0.67, 0.96)"
same,Death/MI/Definite ST OR (95% CI),[2]; [8],"0.80 (0.66, 0.95)"
same,Death/MI/IDR OR (95% CI),[2]; [8],"0.80 (0.67, 0.95)"
same,Death/MI/IDR/Definite ST OR (95% CI),[2]; [8],"0.80 (0.67, 0.95)"
same,Death/MI/ST OR (95% CI),[2]; [8],"0.79 (0.66, 0.94)"
same,Definite ST OR (95% CI),[2]; [8],"0.54 (0.27, 1.10)"
same,"Ischemia-driven revascularization, Odds Ratio (95% CI)",[2]; [8],0.74 (0.45-1.20)
same,"Key secondary end point: stent thrombosis, Odds Ratio (95% CI)",[2]; [8],0.62 (0.43-0.90)
same,"Myocardial infarction, Odds Ratio (95% CI)",[2]; [8],0.80 (0.67-0.97)
same,"Net adverse clinical events, Odds Ratio (95% CI)",[2]; [8],0.80 (0.68-0.94)
same,"Q-wave myocardial infarction, Odds Ratio (95% CI)",[2]; [8],0.61 (0.29-1.29)
same,"Primary end point: death from any cause, myocardial infarction, ischemia-driven revascularization, or stent thrombosis, Odds Ratio (95% CI)","[2]; 48 hours, modified intention-to-treat, Cangrelor vs Clopidogrel, logistic regression adjusted for baseline status and clopidogrel loading dose",0.78 (0.66-0.93)
same,net rate of adverse clinical events (primary efficacy plus primary safety end point),"[2]; 48 hours, post hoc",4.8%
same,"odds ratio, net adverse clinical events","[2]; 48 hours, post hoc, cangrelor vs clopidogrel",0.80
same,Stent thrombosis,[2]; 30 days,1.3%
same,rate of the composite efficacy end point,[2]; 30 days,6.0%
same,"odds ratio, composite efficacy end point",[2]; [9],0.85
same,"odds ratio, stent thrombosis",[2]; [9],0.68
same,Death from any cause,[2]; [10],(1.1) percent
same,"Death from any cause, myocardial infarction, ischemia-driven revascularization, or stent thrombosis",[2]; [10],(6.0) percent
same,Death from cardiovascular causes,[2]; [10],(0.9) percent
same,"Death from any cause, Odds Ratio",[2]; [11],1.09
same,"Death from cardiovascular causes, Odds Ratio",[2]; [11],1.04
same,"Ischemia-driven revascularization, Odds Ratio",[2]; [11],0.85
same,"Myocardial infarction, Odds Ratio",[2]; [11],0.82
same,"Q-wave myocardial infarction, Odds Ratio",[2]; [11],0.63
same,"Stent thrombosis, Odds Ratio",[2]; [11],0.68
same,"Death from any cause, myocardial infarction, ischemia-driven revascularization, or stent thrombosis, Odds Ratio","[2]; 30 days, modified intention-to-treat, Cangrelor vs Clopidogrel, adjusted logistic regression",0.85
same,"odds ratio, intraprocedural stent thrombosis",[2]; cangrelor vs clopidogrel,0.65
same,"odds ratio, procedural complications",[2]; cangrelor vs clopidogrel,0.74
same,"odds ratio, rescue therapy with a glycoprotein IIb/IIIa inhibitor",[2]; cangrelor vs clopidogrel,0.65
same,odds of an ischemic event lower than with clopidogrel,[2]; in vivo,22%
same,odds of stent thrombosis lower than with clopidogrel,[2]; in vivo,38%
same,rate of intraprocedural stent thrombosis,[2]; in vivo,0.6%
same,rate of procedural complications,[2]; in vivo,3.4%
same,use of rescue therapy with a glycoprotein IIb/IIIa inhibitor,[2]; in vivo,2.3%
same,"odds ratio, primary end point",[2]; infusion for 129 minutes or less,0.85
same,"odds ratio, primary end point",[2]; infusion for more than 129 minutes,0.72
same,"odds ratio, primary end point",[2]; patients who received the loading dose during or after PCI,0.79
same,"odds ratio, primary end point",[2]; patients who received the loading dose immediately before PCI,0.80
same,plasma half-life,[3],3 to 5 min
same,platelet function returns to normal after drug termination,[4],30 to 60 min
same,Thrombocytopenia,"[5]; 48-hour, safety population",2 (0.1) no. (%)
same,Odds Ratio (95% CI): ACUITY criteria Major bleeding,[5]; [12],"1.607 (1.232, 2.096)"
same,Odds Ratio (95% CI): ACUITY criteria Minor bleeding,[5]; [12],"1.335 (1.120, 1.592)"
same,Odds Ratio (95% CI): Access site bleeding requiring radiologic or surgical intervention,[5]; [12],"0.796 (0.314, 2.019)"
same,Odds Ratio (95% CI): GUSTO criteria Moderate bleeding,[5]; [12],"1.536 (0.762, 3.093)"
same,Odds Ratio (95% CI): GUSTO criteria Severe/life-threatening bleeding,[5]; [12],"1.495 (0.531, 4.205)"
same,Odds Ratio (95% CI): Hematoma <5 cm at puncture site,[5]; [12],"1.270 (0.992, 1.626)"
same,Odds Ratio (95% CI): Hematoma ≧5 cm at puncture site,[5]; [12],"1.640 (1.214, 2.216)"
same,Odds Ratio (95% CI): Hemodynamic compromise,[5]; [12],"1.395 (0.442, 4.400)"
same,Odds Ratio (95% CI): Intracranial hemorrhage,[5]; [12],"1.992 (0.180, 21.978)"
same,Odds Ratio (95% CI): Oozing at puncture site,[5]; [12],"1.385 (1.052, 1.825)"
same,rates of red blood cell transfusion,[5]; 48 hours,0.9%
same,incidence of dyspnea,"[5]; human, in vivo, 48 h",1.4%
same,rate of arrhythmia,"[5]; human, in vivo, 48 h",2.3%
